Measured values published in US20160250285A1, “NEUROPROTECTIVE PEPTIDES” (priority 2013, published 2016).

Key:
primary rat astrocytes = test: In vitro ischemia/OGD model, astrocytes; assay type: cell-based; details: 2 μM, 15 min prior to OGD (FIG. 42)
Experimental: A brain endothelial cell line (bEND3) and a neuroblastoma cell line (SH-SY5Y) were also used for some experiments. bEND3 and SH-SY5Y cells were cultured using standard techniques in DMEM plus 5 or 15% foetal calf serum. Rat primary astrocytes were obtained and cultured as described for cortical neurons except DMEM plus 10% foetal calf serum was used instead of Neurobasal/2% B27, and the mitotic inhibitor, cytosine arabinofuraNOside was not used.
The in vitro ischemia model was also used for bEND3 cells, SH-SY5Y cells, and astrocytes. For bEND3 cells anaerobic incubation was extended to 2-3 hours and upon removal from the anaerobic incubator, 60 μl of DMEM/2% FCS was added to wells. […]
Twenty-four hours after insult, neuronal cultures were examined by light microscopy for qualitative assessment of neuronal cell viability. Neuronal viability was quantitatively measured by 3-(4,5,dimethyliazol-2-yl)-5-(3-carboxymethoxy-phenyl)-2-(4-sulfophenyl)-2H-tetrazolium salt (MTS) assay (Promega, Australia). The MTS assay measures the cellular conversion of the tetrazolium salt to a water-soluble brown formazan salt, which is detected spectrophotometrically at 490 nm. MTS absorbance data were converted to reflect proportional cell viability relative to both the untreated and treated controls, with the untreated control taken as 100% viability, and presented as mean±SEM. […]

[1] = system: primary cortical neuronal cultures
Experimental: Establishment of cortical cultures was as previously described (Meloni et al. 2001). Briefly, cortical tissue from E18-E19 Sprague-Dawley rats was dissociated in Dulbecco's modified Eagle medium (DMEM; Invitrogen, Australia) supplemented with 1.3 mM L-cysteine, 0.9 mM NaHCOa, 10 units/ml papain (Sigma, USA) and 50 units/ml DNase (Sigma) and washed in cold DMEM/10% horse serum. Neurons were resuspended in Neurobasal (Invitrogen) containing 2% B27 supplement (B27; Invitrogen). Before seeding, 96-well sized glass wells (6 mm diameter, ProTech, Australia) or 96-well plastic plates (ProSciTech, Australia) were coated with poly-D-lysine overnight ([…]: 50 mg/mL; 70-150 K, Sigma). Excess poly-D-lysine solution was then removed and replaced with Neurobasal (containing 2% B27; 4% fetal bovine serum; 1% horse serum; […] glutamate; […] 2-mercaptoethanol; and […]). Neurons were plated to obtain ≈10,000 viable neurons for each well on day in vitro 11-12. Neuronal cultures were maintained in a CO2 incubator (5% CO2, 95% air balance, 98% humidity) at 37° C. On day in vitro 4 one third of the culture medium was removed and replaced with fresh Neurobasal/2% B27 containing the mitotic inhibitor, cytosine arabinofuraNOside (1 mM final concentration; Sigma). On day in vitro 8 one half of the culture medium was replaced with Neurobasal/2% B27. Cultures were used on day in vitro 11 or 12 after which time they routinely consist of >97% neurons and 1-3% astrocytes (Meloni et al. 2001).
Peptides were added to culture wells (96-well plate format) 15 minutes prior to glutamic acid or kainic acid exposure by removing media and adding 50 μl of Neurobasal/2% 327 containing CPPs, control peptides or MK801/CNQX. To induce excitotoxicity, 50 μl of Neurobasal/2% B27 containing glutamic acid (200 μM) or kainic acid (400 μM) or NMDA (200 μM) was added to the culture wells (100 μM glutamic acid, 200 μM kainic acid and NMDA 100 μM final concentration). Cultures were incubated at 37° C. in the CO2 incubator for 5 minutes for glutamic acid, 45 minutes for kainic acid and 10 minutes for NMDA exposure, after which time the media was replaced with 100 μl of 50% Neurobasal/2% N2 supplement (Invitrogen) and 50% balanced salt solution (BSS; see below). Cultures were incubated for a further 24 hours at 37° C. in the CO2 incubator. The untreated controls with or without glutamic acid or kainic acid treatment received the same wash steps and media additions.
Twenty-four hours after insult, neuronal cultures were examined by light microscopy for qualitative assessment of neuronal cell viability. Neuronal viability was quantitatively measured by 3-(4,5,dimethyliazol-2-yl)-5-(3-carboxymethoxy-phenyl)-2-(4-sulfophenyl)-2H-tetrazolium salt (MTS) assay (Promega, Australia). The MTS assay measures the cellular conversion of the tetrazolium salt to a water-soluble brown formazan salt, which is detected spectrophotometrically at 490 nm. MTS absorbance data were converted to reflect proportional cell viability relative to both the untreated and treated controls, with the untreated control taken as 100% viability, and presented as mean±SEM. For studies using astrocytes, bEND3, and SH-Y5Y cells, raw MTS data was used to generate graphs. Viability data was analysed by ANOVA, followed by post-hoc Fischer's PLSD test, with P<0.05 values considered statistically significant. Four- to six wells were used in all assays.

fold more potent than TAT-D, based on IC50 values ([1]; kainic acid model) [fold] | Compound | astrocyte cell death after in vitro ischemia (primary rat astrocytes) | neuroprotection ([1]; FIG. 2) | IC50 ([1]; read-out: IC50: Kainic acid model, Table 3, from FIG. 2, 200 μM kainic acid 45 min, viability 24 h, MTS) [nM]
– | H-RRRRRRRRRRRRRRRRRR-OH [Peptide R18] | reduced astrocyte cell death | – | –
7 | N=C(N)NCCC[C@H](NC(=O)[C@H](CCCNC(=N)N)NC(=O)[C@H](CCCNC(=N)N)NC(=O)[C@H](CCCNC(=N)N)NC(=O)[C@H](CCCNC(=N)N)NC(=O)[C@H](CCCNC(=N)N)NC(=O)[C@H](CCCNC(=N)N)NC(=O)[C@H](CCCNC(=N)N)NC(=O)[C@@H](N)CCCNC(=N)N)C(=O)O [Peptide R9] | – | neuroprotective | 810
